Data reported in patent publication US6369101B1, “Therapeutic method to treat herpes virus infection” (Regents of the University of Minnesota, priority 1999, dated 2002).
In brackets after ≈: the same amount, converted by molar mass. Read-outs that look alike come from different tables or passages of the source.

How the values were obtained:
[1] = tested on: Varicella-Zoster Virus; experiment: CPE inhibition in stationary cells (visual), VZV in HFF cells; type: cell-based
[2] = tested on: Human Cytomegalovirus; experiment: CPE inhibition in stationary cells (visual), HCMV in HFF cells; type: cell-based
[3] = tested on: MEF cells; experiment: CC50 in MEF cells (Table 3); type: cell-based; settings: Mouse Cytomegalovirus section of Table 3
[4] = tested on: Mouse Cytomegalovirus; experiment: CPE inhibition in stationary cells (visual), MCMV in MEF cells; type: cell-based; settings: test compounds in DMSO
[5] = tested on: HFF cells; experiment: CC50 in HFF cells (Table 3); type: cell-based, human; settings: HFF cells
Procedure: (§1) The cells were observed daily for any change in morphology. The rounding and lysis of cells were observed if the compound has cytotoxic effect. At the end of this time, the media-drug solution was removed and the cells washed. […] The cells-media mixture was then pipetted up and down several times to resuspend the cells and 0.2 ml of the cell suspension was added to 9.8 ml of trypan blue and cells were counted using hemocytometer. Each sample was counted three times with three replicate wells per sample.

[6] = tested on: Epstein-Barr Virus; experiment: VCA expression in EBV-infected Daudi cells
From the text: Raji is a Burkitt's lymphoma cell line containing 60 EBV genome/cell, and was the primary cell used for screening antiviral activity against EBV early antigen (EA) expression. […] It spontaneously expresses EBV EA in 0.25-0.5% of the cells. It was used in follow-up studies to confirm activity. These cell lines respond to superinfection by EBV by expressing EA-diffuse component EA (D), EA restricted component EA (R), and viral capsid antigen (VCA). […] The cultures were fed twice weekly and the cell concentration was adjusted to 3×10^5/ml. The cells were kept at 37° C. in humidified atmosphere with 5% CO2.
Cells were infected with the P3HR-1 strain of HBV and the test compound was added after adsorption (45 minutes at 37° C.) and washing of the cell cultures. The cultures were incubated for two days in complete medium to allow viral gene expression. Following the 48 hours of incubation, the numbers of cells of each sample was counted and smears were made. Monoclonal antibodies to the different EA components and VCA were then added to the cells and then incubated and washed. This is followed by a fluorescein conjugated rabbit anti-mouse IgG antibody, and the number of fluorescence cells in the smear were counted. The total number of cells in the cultures positive for EA or VCA were then calculated and compared.

[7] = tested on: Daudi cells; experiment: CC50 in Daudi cells (Table 3); type: cell-based
Procedure: (§8) Raji is a Burkitt's lymphoma cell line containing 60 EBV genome/cell, and was the primary cell used for screening antiviral activity against EBV early antigen (EA) expression. Daudi is a low level producer that contains 152 EBV genome copies/cell. It spontaneously expresses EBV EA in 0.25-0.5% of the cells. It was used in follow-up studies to confirm activity. […] All cell lines were maintained in RPMI-1640 medium supplemented with 10% FCS, L-glutamine and 100 μg/ml gentamicin. The cultures were fed twice weekly and the cell concentration was adjusted to 3×10^5/ml. The cells were kept at 37° C. in humidified atmosphere with 5% CO2.

[8] = tested on: HSV-2 strain G; experiment: CPE inhibition, HSV-2 strain G in HEp-2 cells; note: key: +++ = Complete cytopathic effect; ++ = Moderate cytopathic effect; + = Minimum cytopathic effect; − = No cytopathic effect; type: cell-based, herpes simplex virus type 2; settings: conc. per compound (ng/ml)
From the text: (§2) Human laryngeal epithelial carcinoma cells (HEp-2, ATCC, Rockville, Md.) were used for testing of antiviral compounds by cytopathic effect (CPE) inhibition and plaque reduction assay. Primary human foreskin fibroblast cells (HFF) obtained from Dr. E. R. Kern (Department of Pediatrics, University of Alabama Medical School, 309 Bevill Biomedical Research Building, 845 19th Street South, Birmingham, Ala., 35294-2170), were used for cytopathic effect (CPE) inhibition assay. HEp-2, African green monkey kidney cells (Vero, ATCC), HFF and primary rabbit kidney cells were used to determine the cytotoxic effect of compounds of formula I. These cells were propagated in Dulbeco's modified Eagle's medium (DMEM) (Sigma, USA) supplemented with 10% inactivated fetal calf serum (FCS), 25 mM HEPES, 0.2% sodium bicarbonate and 1% penicillin/-streptomycin at 37° C. in the presence of 5% CO2.
(§3) The antiviral activity of the test compounds was determined against HSV-1 strain F, HSV-2 strain G (ATCC), HSV-1 strain E-377 and HSV-2 strain MS (Dr. E. R. Kern, see above), CMV strain AD 169 (NIH), HCMV (NIH), MCMV (NIH), and VZV strain Ellen (NIH). Highly infective virus stocks of HSV-1 and HSV-2 were prepared by infecting a confluent monolayer of HEp-2 (ATCC) or HFF in 150 cm^2 plastic tissue culture flasks (Falcon, USA) at a multiplicity of infection of 0.5 in DMEM supplemented with 10% inactivated fetal calf serum and 1% penicillin/streptomycin at 37° C. in the presence of 5% CO2. The infected cells were disrupted through three freeze/thaw cycles, and viruses were clarified from large cell debris by low speed centrifugation at 3000 rpm for 10 minutes. The virus suspension was separated, aliquoted and stored at −80° C. until assayed or used for animal infection. The stock HSV-1 (E377) and HSV-2 (MS strain) contained 3.5×10^8 and 1.1×10^7 pfu/ml respectively.
(§4) Low passage HFF cells were seeded into 96-well tissue culture plates 24 hours prior to use at a cell concentration of 2.5×10^4 cells per ml in 0.2 ml of DMEM supplemented with 10% fetal calf serum. After 24 hours of incubation at 37° C. in the presence of 5% CO2, medium was removed and the test compounds were diluted two-fold in DMEM in the 96-well tissue culture plate containing monolayer. […] For both HSV-1 and HSV-2 assays, the virus concentration utilized was 1000 pfu/ml and for HCMV, MCMV, and VZV assay 2500 pfu/ml were used. The plates were then incubated at 37° C. in the presence of 5% CO2 for two to three days for HSV-1 and HSV-2, 10 days for VZV and 14 days for HCMV and MCMV. The virus induced cytopathic effect (CPE) was monitored microscopically every day. CPE of HSV-1 was recognized by cell rounding and clumping, while HSV-2 formed large syncytia along with rounding and clumping of cells. […] EC50s were estimated from graphical plots of percent CPE against the concentration of the test compounds. The EC50s for each compound are the mean of EC50s for three or more independent experiments. After three days of incubation period, media was aspirated and the cells stained with a 0.1% crystal violet solution for 30 minutes. The stain was then removed and the plates were rinsed with tap water, air dried and retained.

[9] = tested on: HSV-1 strain F; experiment: CPE inhibition, HSV-1 strain F in HEp-2 cells; note: key: +++ = Complete cytopathic effect; ++ = Moderate cytopathic effect; + = Minimum cytopathic effect; − = No cytopathic effect; type: cell-based, herpes simplex virus type 1; settings: conc. per compound (ng/ml)
From the text: as §2, §3, §4

[10] = tested on: Primary human foreskin fibroblast cells (HFF); experiment: Cell proliferation assay (cytotoxicity) in HFF cells; type: cell-based
Procedure: as §2, with “Primary human foreskin fibroblast cells (HFF) obtained from Dr. E. R. Kern (Department of Pediatrics, University of Alabama Medical School, 309 Bevill Biomedical Research Building, 845 19th Street South, Birmingham, Ala., 35294-2170), were used for cytopathic effect (CPE) inhibition assay.” left out
(§5) HFF, Vero and HEp-2 cells were seeded in 24-well tissue culture plates at a concentration of […] in DMEM containing 10% FCS and incubated for 24 hours at 37° C. in the presence of 5% CO2. To the monolayer of these cells 0.5, 1.0, 1.5 and 2.0 ml of solution of antiviral compounds were added in the respective wells in duplicate and the cells were then incubated in a 5% CO2 incubator at 37° C. for 72 hours. The cells were observed daily for any change in morphology. […] At the end of this time, the media-drug solution was removed and the cells washed. One ml of 0.25% trypsin was added to each well and incubated until the cells start to come off of the plate. The cells-media mixture was then pipetted up and down several times to resuspend the cells and 0.2 ml of the cell suspension was added to 9.8 ml of trypan blue and cells were counted using hemocytometer. Each sample was counted three times with three replicate wells per sample.

[11] = tested on: HSV-2 strain MS; experiment: CPE inhibition assay, HSV-2 MS in human foreskin fibroblast cells; type: cell-based, herpes simplex virus type 2; settings: CPE inhibition in HFF cells
Procedure: (§6) Stock solutions of the compounds used for the testing of antiviral activity against HSV-1 and HSV-2 were prepared in distilled water, filtered through 0.2 μm filter (Acrodisco®, Gelman Sciences, USA) and stored at room temperature until used.
as §2, §3, §4

[12] = tested on: Human laryngeal epithelial carcinoma cells (HEp-2); experiment: Cytotoxicity in HEp-2 cells; type: cell-based
Procedure: as §2, with “Primary human foreskin fibroblast cells (HFF) obtained from Dr. E. R. Kern (Department of Pediatrics, University of Alabama Medical School, 309 Bevill Biomedical Research Building, 845 19th Street South, Birmingham, Ala., 35294-2170), were used for cytopathic effect (CPE) inhibition assay.” left out
as §5

[13] = tested on: HSV-2 (strain G); experiment: Plaque reduction assay, HSV-2 strain G in HEp-2 cells; type: cell-based, herpes simplex virus type 2; settings: conc. per compound (ng/ml) (Acyclovir 250), HSV-2 virus control 47
Procedure: (§7) HEp-2 cells were grown to monolayer in 24 well tissue culture plates in DMEM containing 10% fetal calf serum at 37° C. for 24-36 hours in the presence of 5% CO2. The monolayer of HEp-2 cells was infected with 0.1 ml of HSV- 1 (strain F) or HSV-2 (strain G) containing 100 pfu. The viruses were allowed to adsorb for 1 hour at 37° C. in the presence of 5% CO2. All wells containing virus infected cells except virus control were overlaid with 0.9 ml of DMEM and 1 ml of test compound. The virus control and cell control received DMEM only. All microtiter plates were incubated at 37° C. in the presence of 5% CO2 and observed twice daily for 72 hours for viral CPE. At the end of the experiment, plates were stained with 0.1% crystal violet and the results were quantified by counting plaque forming units.

[14] = tested on: HSV-1 strain E-377; experiment: CPE inhibition assay, HSV-1 E377 in human foreskin fibroblast cells; type: cell-based, herpes simplex virus type 1; settings: CPE inhibition in HFF cells
Procedure: as §6, §2, §3, §4

[15] = CC50 in HFF cells (Table 3); type: cell-based, human; settings: human
Procedure: as §1

[16] = CC50 in Daudi cells (Table 3); type: cell-based; settings: human
Procedure: as §8

[17] = CC50 in MEF cells (Table 3); type: cell-based; settings: Mouse Cytomegalovirus section of Table 3
[18] = tested on: HSV-1 (strain F); experiment: Plaque reduction assay, HSV-1 strain F in HEp-2 cells; type: cell-based, herpes simplex virus type 1; settings: conc. per compound as in column Conc. (ng/ml), HSV-1 virus control 5
Procedure: as §7

[19] = Human Cytomegalovirus section of Table 3
[20] = Varicella-Zoster Virus section of Table 3
[21] = Epstein-Barr Virus, Daudi cells, VCA, test compounds in DMSO
[22] = Daudi cells, Epstein-Barr Virus section of Table 3
[23] = HEp-2 cells, conc. per compound (ng/ml)
[24] = Human alphaherpesvirus 3, test compounds in DMSO, read-out: EC50
[25] = human gammaherpesvirus 4, Daudi
[26] = Human betaherpesvirus 5, test compounds in DMSO, read-out: EC50
[27] = HFF cells, Human Cytomegalovirus section of Table 3, read-out: CC50

| Molecule | EC50 ([1]; test compounds in DMSO) [µg/mL] | EC50 ([2]; test compounds in DMSO) [µg/mL] | CC50 [5, 19] [µg/mL] | CC50 [5, 20] [µg/mL] | EC50 [6, 21] [µg/mL] | CC50 [7, 22] [µg/mL] | Cytopathic Effect (CPE) Inhibition HSV-2 Strain G [8] | Cytopathic Effect (CPE) Inhibition HSV-1 Strain F [9] | EC50 HSV-2 MS [11] [µg/mL] | Cell Cytotoxicity [12, 23] | Plaque Reduction Assay Average pfu/10^5 Cells HSV-2 Strain G [13] [pfu/10^5 Cells] | EC50 HSV-1 E377 [14] [µg/mL] | EC50 [1, 24] [µg/mL] | EC50 [6, 25] [µg/mL] | EC50 [2, 26] [µg/mL] | CC50 at 72 h [15, 27] [µg/mL] | also measured |
| --- | --- | --- | --- | --- | --- | --- | --- | --- | --- | --- | --- | --- | --- | --- | --- | --- | --- |
| Betulin succinate | >0.02 | 0.0039 | 0.0969 | 0.0688 | >0.05 | >0.05 |  |  |  |  |  |  |  |  |  |  | CC50 [3]: 0.014 µg/mL; EC50 [4]: >0.004 µg/mL |
| C[C@@H]1O[C@@H](O[C@H]2[C@H](O[C@H]3CC[C@@]4(C)[C@@H](CC[C@]5(C)[C@@H]4CC=C4[C@@H]6CC(C)(C)CC[C@]6(C(=O)O)CC[C@]45C)[C@]3(C)CO)OC[C@H](O)[C@@H]2O)[C@H](O)[C@H](O)[C@H]1O [Hederine hydrate, α-hederin hydrate] | >0.004 | >0.004 | 0.01 | 0.0115 | 0.0015 | 0.0038 | ++ | ++ | >0.25 | − | 38 | >0.25 |  |  |  |  | CC50 ([10]; Human foreskin fibroblast cells, reduces growth of uninfected cells by 50%): >0.25 µg/mL |
| C=C(C)[C@@H]1CC[C@]2(COP(=O)(O)O)CC[C@]3(C)[C@H](CC[C@@H]4[C@@]5(C)CC[C@H](OP(=O)(O)O)C(C)(C)[C@@H]5CC[C@]43C)[C@@H]12 [Betulin diphosphate] |  |  |  |  |  |  |  |  |  |  |  |  | > 0.1 | 0.00039 |  |  | CC50 at 72 h ([15]; CC50): > 0.1 µg/mL; CC50 [16]: > 0.05 µg/mL |
| Nc1nc(O)c2ncn(COC(CO)CO)c2n1 [Ganciclovir ®, Ganciclovir, reference compound] |  |  |  |  |  |  |  |  |  |  |  |  |  |  | 0.1 (≈ 0.392 µM) | > 100 | CC50 [17]: > 100 µg/mL; EC50 ([4]; read-out: EC50): 0.9 µg/mL (≈ 3.53 µM) |
| C[C@H]1[C@H](C)CC[C@]2(C(=O)O)CC[C@]3(C)C(=CC[C@@H]4[C@@]5(C)CC[C@H](O)C(C)(C)[C@@H]5CC[C@]43C)[C@H]12 [Ursolic acid] |  |  |  |  |  |  | ++ | ++ |  | − | 33 |  | > 0.0008 | 0.0485 (≈ 0.106 µM) | > 0.1 | > 0.1 | CC50 at 72 h ([15]; HFF cells, Varicella-Zoster Virus section of Table 3, read-out: CC50): 0.0029 µg/mL (≈ 0.00635 µM); CC50 ([16]; Daudi cells, Epstein-Barr Virus section of Table 3, read-out: CC50): > 0.05 µg/mL |
| C[C@H]1[C@H](C)CC[C@]2(CO)CC[C@]3(C)C(=CC[C@@H]4[C@@]5(C)CC[C@H](O)C(C)(C)[C@@H]5CC[C@]43C)[C@H]12 [Uvaol] | >0.02 | >0.1 |  |  | 0.00031 (≈ 0.0007 µM) |  | ++ | ++ | >0.25 |  | 28 | >0.25 |  |  |  |  | CC50 [10]: 0.125 µg/mL (≈ 0.282 µM); Cell Cytotoxicity [12]: −; CC50 [7]: 0.0443 µg/mL (≈ 0.1 µM); Plaque Reduction Assay Average pfu/10^5 Cells HSV-1 Strain F [18]: 0 pfu/10^5 Cells |
